In patent publication US20070112068A1, “Nitrile compound and its use in pest control” (priority 2003, published 2007):

Assays:
Type in all cases: in vivo
Periplaneta americana = test: Experimental Example 17: treated filter paper in paper box, Periplaneta americana; conditions: 0.1 ml of 5% (w/v) acetone solution on filter paper in paper box; after 7 days
Protocol: A 5% (w/v) solution of the present compound (31) in acetone was prepared. 0.1 ml of the solution was added dropwise onto a filter paper with 2 cm×2 cm and then air-dried. This filter paper was attached to the center of the inside bottom of a paper box having 10 cm (width)×2 cm (height)×7 cm (depth) with a two-sided tape. One hole of 2 mm in width and 2 cm in height was made through one side of this box. This box was placed in a plastic vat with 25 cm×20 cm×8 cm in height and therein 3 females and 3 males of Periplaneta americana were released. The inside wall of the plastic vat used in this experiment was coated with talc for preventing the escape of cockroaches. The plastic vat contained feed and water and left at 25° C. After 7 days, Periplaneta americana was observed and the death rate of the pest was calculated. This experiment was repeated two times.

Blattella germanica [1] = test: Experimental Example 15: treated filter paper in paper box, Blattella germanica; conditions: 0.1 ml of 2.5% (w/v) acetone solution on filter paper in paper box; after 7 days
Protocol: 2.5% (w/v) solutions of the present compounds (23), (24) and (31) in acetone were prepared. 0.1 ml of the solution was added dropwise onto a filter paper with 2 cm×2 cm and then air-dried. This filter paper was attached to the center of the inside bottom of a paper box having 10 cm (width)×2 cm (height)×7 cm (depth) with a two-sided tape. One hole of 5 mm in width and 2 cm in height was made through one side of this box. This box was placed in a plastic vat with 25 cm×20 cm×8 cm in height and therein 10 females and 10 males of Blattella germanica were released. The inside wall of the plastic vat used in this experiment was coated with talc for preventing the escape of cockroaches. The plastic vat contained feed and water and left at 25° C. After 7 days, Blattella germanica was observed and the death rate of the pest was calculated. This experiment was repeated two times.

Culex pipiens pallens [2] = test: Experimental Example 26: liquid-absorbing wick-type heat-vaporizing product, Culex pipiens pallens; conditions: liquid-absorbing wick-type product (Formulation Example 19); 20 minutes exposure, after 24 hours
Description: A part of a liquid-absorbing wick-type heat-vaporizing pesticidal product of the present compound (31) prepared according to Formulation Example 19 is set on a heater for a liquid absorbing wick-type heat-vaporizing pesticide, and then placed on the center of the floor of a chamber having 70 cm (width)×70 cm (depth)×70 cm (height). After the part of a liquid-absorbing wick-type heat-vaporizing pesticidal product is initiated to be heated with the heater, about 20 female imagoes of Culex pipiens pallens are released in the chamber. After 20 minutes, all test pests are collected, placed in a plastic cup together with absorbent cotton impregnated with 5% sugar water, and left at 25° C.

Blattalla germanica = test: Experimental Example 3: treated filter paper with sucrose bait, German cockroach; conditions: 500 ppm, 0.7 ml on filter paper; two male imagoes; after 6 days
Protocol: A filter paper having a diameter of 5.5 cm was spread on the bottom of a polyethylene cup having a diameter of 5.5 cm and 0.7 ml of the experimental pesticidal solution was added dropwise onto the filter paper. As a bait 30 mg of sucrose was uniformly placed on the filter paper. Into the polyethylene cup, two male Blattalla germanica imagoes were released and the cup was sealed with a lid. After 6 days, the number of surviving Blattalla germanica was examined and the death rate of the pest was calculated.

Musca domestica = test: Experimental Example 11: treated filter paper in Peet-Grady chamber, Musca domestica; conditions: 5 ml of 1% (w/v) acetone solution on filter paper; 1.8 m Peet-Grady chamber; 1 hour exposure, 24 hours later
Protocol: (§1) A 1% (w/v) solution of the present compound (31) in acetone was prepared. Onto a filter paper with 10 cm×25 cm, 5 ml of the solution was added dropwise uniformly and then air-dried. This filter paper was suspended from the center of the ceiling center of a Peet-Grady chamber with 1.8 m (width)×1.8 m (depth)×1.8 m (height) and therein about 50 imagoes of Musca domestica were released. After 1 hour, all test pests were collected, put into a plastic cup together with absorbent cotton impregnated with 5% sugar water, and then left at 25° C. After 24 hours, the number of surviving Musca domestica was examined and the death rate was calculated.

Culex pipiens pallens [3] = test: Experimental Example 10: treated filter paper in Peet-Grady chamber, Culex pipiens pallens; conditions: 5 ml of 1% (w/v) acetone solution on filter paper; 1.8 m Peet-Grady chamber; female imagoes; 1 hour exposure, 24 hours later
Protocol: as §1, with “50 female” for “50”, “Culex pipiens pallens” for “Musca domestica”

Blattella germanica [4] = test: Experimental Example 21: poison bait, Blattella germanica; conditions: poison bait: 3 ml of 0.5% by weight acetone solution per 3 g animal feed; 1 g bait; after 7 days
Protocol: 3 ml of a 0.5% by weight solution of the present compound (31) in acetone is added dropwise to 3 g of animal powdery feed, mixed thoroughly, and then air-dried to obtain a poison bait. 1 g of this poison bait is placed on an aluminum dish and the dish is placed in a plastic cup (860 mL) containing 20 imagoes (10 males and 10 females) of Blattella germanica. The pest is given water and kept at 25° C. After 7 days, the number of surviving Blattella germanica is examined and the activity of the poison bait is obtained.

Culex pipiens pallens [5] = test: Experimental Example 27: fan-ventilated knitted fabric preparation, Culex pipiens pallens; conditions: preparation of Formulation Example 10 ventilated by electric fan; 20 minutes exposure, after 24 hours
Protocol: A preparation of the present compound (31) prepared according to Formulation Example 10 is set at the upper part of an electric fun shown in FIG. 5 and then placed on the center of the floor of a chamber having 70 cm (width)×70 cm (depth)×70 cm (height). After the electric fan is operated to initiate to ventilate the preparation, about 20 female imagoes of Culex pipiens pallens are released in the chamber. After 20 minutes, all test pests are collected, placed in a plastic cup together with absorbent cotton impregnated with 5% sugar water, and left at 25° C.

Coptotermes formosanus = test: Experimental Example 12: topical application, Coptotermes formosanus; conditions: 0.2 μl of 0.005% (w/v) solution onto notum of thorax of ergates; after one day
Protocol: The present compound (31) was dissolved in a 0.05% (w/v) solution of Sudan red 7B in acetone so that the present compound concentration was 0.005% (w/v) to prepare an experimental pesticidal solution. Onto the notum of the thorax of ergates of Coptotermes formosanus, 0.2 μl of this experimental solution was added dropwise. After one day from treatment, the number of surviving pests was examined and the death rate of the pest was calculated.

N#CC(C#N)(CCC(F)(F)F)CC(F)(F)C(F)(F)C(F)(F)C(F)F [(31)]
death rate of the pest (Periplaneta americana): 100% | death rate of the pest (Blattella germanica [1]): 100% | pesticidal effect (Culex pipiens pallens [2]): pesticidal effect on Culex pipiens pallens is confirmed | death rate of the pest (Blattalla germanica): 100% | death rate of the pest (Musca domestica): 92% | death rate of the pest (Culex pipiens pallens [3]): 86% | activity of the poison bait (Blattella germanica [4]): sufficient pesticidal effect | pesticidal effect (Culex pipiens pallens [5]): pesticidal effect on Culex pipiens pallens is confirmed | death rate of the pest (Coptotermes formosanus): 100%
